In patent publication US9322049B2, “Activation and activators of SirT6” (CORNELL UNIVERSITY, priority 2009, dated 2016):

How the values were obtained:
SirT6 [1] = molecular target: T1, SirT6 (Homo sapiens, UniProt Q8N6T7); test: Determination of Kd of DNA for SirT6 activation by HPLC (Example 2); type: biochemical; conditions: 800 μM NAD, 480 μM H3, 10 μM SirT6, 2 hours 37° C.; fit Activation (fold)=1+m*x/(Kd+x)
T1 construct: The protein expression and purification were the same as the full length SIRT6 as described above; made in house; host or cells: E. coli BL21 Codon-plus RIPL
Procedure: FIG. 5A depicts a schematic of DNA structure. […] After 2 hours incubation at 37° C., either the deacetylated H3 was separated from H3 in the reaction containing the digested calf thymus DNA or AADPR was separated from other components in the reaction containing ssDNA, the plasmid, or dsDNA.
The plasmid pSTBlue was digested with BamHI and EcoRV and purified by […]™ III kit. […] The AADPR was separated by HPLC and the quantified data were fit into Michaelis-Menten equation to get Km of H3.
In the enzymatic reaction, the following DNA was used.
Calf thymus DNA (USB Corporation), which was digested with EcoRI and then purified using Spinprep Gel DNA Kit (Novagen);
ssDNA (5′ […] 3′ (SEQ ID NO: 9), Integrated DNA Technologies);
dsDNA (forward 5′ […] 3′ (SEQ ID NO: 10), reverse 5′ […] 3′ (SEQ ID NO: 11), Integrated DNA Technologies); and
pSTBlue plasmid, which was amplified using DH5α cells and purified by WIZARD™ PLUS (Midiprep) DNA purification system (Promega).
The precipitated proteins and other insolubles were removed by centrifugation at 15,000 rpm for 5 minutes. DNA in the supernatant was further removed by centrifugation at 15,000 rpm for 10 minutes using Microcon with 10 kDa cutoff (Millipore). In the experiment with the digested calf thymus DNA, the peptides were separated by a Waters Xterra RP-18 column using a gradient of 0-30% acetonitrile in 0.1% trifluoroacetic acid. […]

SirT6 [2] = molecular target: T1, SirT6; test: Separation of SIRT6-DNA complex on Ni-NTA resin and Kd of DNA by gel electrophoresis (Example 6); type: binding
Procedure: The linearized DNA was incubated with SirT6 and Ni-NTA resin. The resin was washed as described in Materials and Methods, and the complex of SirT6-DNA was dissociated by 1 mM suramin. The parallel experiments were done in the presence of 500 uM H3 peptide. DNA bound to SirT6 was quantified and fit to Michaelis-Menten equation to get Kd of DNA binding to the enzyme. […] The single stranded DNA was incubated with SirT6 and Ni-NTA resin. The resin was washed and the complex of SirT6-ssDNA was dissociated by 1 mM suramin. The parallel experiments were done in the presence of 500 uM H3 peptide. […] The linearized DNA was incubated with SirT6 and Ni-NTA resin with or without H3 peptide. After washing, the resin was incubated with different concentration of surmain. The dissociated DNA was quantified by gel electrophoresis. […] After the resin was washed, DNA was dissociated with 1 mM suramin and quantified by gel electrophoresis. Lane 1, 150 ng circular pSTBlue (C-pSTBlue); Lane 2, 150 ng pSTBlue cut with BamHI (B-pSTBlue); Lane 3, 150 ng pSTBlue cut with EcoRV (E-pSTBlue); Lane 4, circular pSTBlue bound to SirT6; Lane 5, pSTBlue cut with BamHI bound to SirT6; Lane 6, pSTBlue cut with EcoRV bound to SirT6; Lane 7, circular pSTBlue bound to SirT6 in the presence of H3; Lane 8, pSTBlue cut with BamHI bound to SirT6 in the presence of H3; Lane 9, pSTBlue cut with EcoRV bound to SirT6 in the presence of H3; Lane 10, DNA ladder.
25% slurry of Ni-NTA resin was incubated with 5 μM SIRT6 and 500 μM H3 peptide for 1 hour at room temperature, in addition with different concentration of pSTBlue which was linearized with BamHI or different concentration of single stranded DNA, and/or 500 μM H3 peptide. After incubation, the resin was spun at 4,000 rpm for 1 minute, and was washed with 10 fold of resin volume with 10 mM imidazole, 100 mM phosphate buffer, pH 7.5, and then 10 fold volume of resin volume with 20 mM imidazole, 10 mM phosphate buffer, pH 7.5. The SIRT6-DNA complex was separated from the resin by adding 250 mM imidazole, 100 mM phosphate buffer, pH 7.5. […] The DNA bound to SIRT6 was then quantified by DNA gel electrophoresis: Linearized pSTBlue was quantified by 0.8% agarose gel electrophoresis using Tris-acetate acid buffer (1×TAE) run at room temperature; single stranded DNA was quantified by 6% acrylamide gel using Tris-boric acid buffer (1×TBE) run at room temperature. […]
In order to test if SIRT6 distinguished different DNA in the binding, pSTBlue was cut with different enzymes and purified by […]™ III kit (MP Biomedicals, LLC). […] DNA was then dissociated from SIRT6 by adding suramin to a final concentration of 1 mM and quantified by 0.8% agarose gel electrophoresis.

[3] = in the presence of 500 uM H3 peptide

T1 sequence (Q8N6T7 whole entry): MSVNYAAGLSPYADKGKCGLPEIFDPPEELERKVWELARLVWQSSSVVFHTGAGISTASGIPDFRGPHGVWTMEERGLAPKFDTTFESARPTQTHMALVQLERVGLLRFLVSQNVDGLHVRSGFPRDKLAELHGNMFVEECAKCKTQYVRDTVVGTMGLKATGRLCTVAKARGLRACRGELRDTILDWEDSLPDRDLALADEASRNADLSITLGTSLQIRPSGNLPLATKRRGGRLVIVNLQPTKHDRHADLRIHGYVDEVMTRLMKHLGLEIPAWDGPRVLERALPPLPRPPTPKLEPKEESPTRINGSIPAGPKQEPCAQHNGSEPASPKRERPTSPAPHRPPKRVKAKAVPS

**Q.** How did the “Kd of DNA for activation of SirT6” value (SirT6 [1]) turn out when “ssDNA: ssDNA 5′ GGGGATCCATGAAGATGAGCTTTGCGTTGACT 3′ (SEQ ID NO: 9), Integrated DNA Technologies (DNA, backbone and methylation of C not given here)” was run?
**A.** The value was 127.7 µg/mL.

**Q.** What about the “Kd of DNA binding to SirT6” value (SirT6 [2]; in the absence of H3) of the same substance?
**A.** The value was 195.5 µg/mL.

**Q.** What about the “Vmax of DNA bound to SirT6” value (SirT6 [2]; in the absence of H3) of the same substance?
**A.** Its value is 151.7 ng/µL.

**Q.** What about the “Kd of DNA binding to SirT6” value (SirT6 [2]; [3]) of the same substance?
**A.** Its value is 238.8 µg/mL.

**Q.** And the “Vmax of DNA bound to SirT6” value (SirT6 [2]; [3])?
**A.** The value was 333.5 ng/µL.
